From patent US20200113902A1, “COMPOSITIONS AND METHODS FOR TREATING CANCERS WITH COVALENT INHIBITORS OF CYCLIN-DEPENDENT KINASE 7 (CDK7)” (Syros Pharmaceuticals, Inc., priority 2017, published 2020)

Columns and labels:
[1] = system: homologous recombination deficiency / carboplatin sensitivity genes in TOV21G cells; assay: Nanostring PanCancer Pathways mRNA, TOV21G; type: cell-based; details: 50 nM, 16 hours
Method: (§1) Ovarian Cell lines OvCar3, TOV21G, A2780 and COV318 were plated at 500,000 cells/well in a 6-well plate the day before treatment. The next day the cells were treated with vehicle or 50 nM Compound 1 for 0, 6, or 16 hours after which cells were harvested and total RNA collected using RNeasy mini kit (Qiagen). Changes in mRNA between samples were analyzed with Nanostring™ PanCancer Pathways Panels specifically analyzing genes related to homologous recombination deficiency and carboplatin sensitivity (ie. BRCA1, BRCA2, Rad51, ATM, ATR, MSH2, MSH6). Nanostring signal intensities were first normalized to housekeeping genes across all cell lines, and then normalized to the 0 hour timepoint within a cell line.

BR5023 xenografts = assay: TNBC patient-derived xenograft BR5023, tumor volume; type: in vivo, mouse; details: 40 mg/kg or 30 mg/kg i.v. BIW
Method: Patient-derived xenograft (PDX) models from TNBC patients (BR5010, BR5013, BR5015, and BR5023) were established in NOD-SCID mice at Crown Bioscience (San Diego, USA). Cryo vials containing tumor cells were thawed and prepared for injection into mice. Cells were washed in PBS, counted, and resuspended in cold PBS at a concentration of 50,000-100,000 viable cells/100 ul. Cell suspensions were mixed with an equal volume of Cultrex ECM and kept on ice during transport to the vivarium. Cells were prepared for injections by withdrawing ECM-Cell mixture into a chilled slip-tip syringe fitted with a 26G 7/8 (0.5 mm×22 mm) needle. The filled syringes were kept on ice to avoid the solidification of ECM. Each mouse was inoculated subcutaneously in the right flank with 200 uL of the cell suspension. Tumor sizes were measured in two dimensions using a caliper, and the volumes were expressed in mm^3 using the formula: V=0.5 a×b^2, where a and b are the longest and shortest diameters of the tumor, respectively. Compound 1 treatment was started when the average tumor size reached 150-200 mm^3.
Compound 1 was formulated in w/v 20% Captisol (pH 4-6) and administered by i.v. twice weekly (BIW) at a final dose of 40 mg/kg or 30 mg/kg in a 10 ml/kg volume. Tumor volumes were measured twice weekly over the course of the study. […]

[2] = system: MCL1 protein in MDAMB468 cells; assay: Western blot of BCL2 family proteins, MDAMB468; type: cell-based, human; details: 50 nM or 100 nM, 24 hours
Method: Cytotoxic cancer cell lines HCC70 and TOV21G, and cytostatic cancer cell lines T47D and COV318 were seeded in wells of a six-well dish at a density of 1×10^6 cells/well and allowed to adhere overnight. Cells were then treated with 50 nM of Compound 1 for 16 or 24 hours, or with DMSO (0 hours) representing a negative control. Cells were harvested and placed on ice, and resuspended in RIPA lysis buffer supplemented with protease and phosphatase inhibitors. Clarified lysates prepared with 4×LSD running buffer and boiled at 95° C. for 5 minutes. Equivalent amounts of sample (10 μg total protein) were run on a 4-12% Bis-Tris gel and transferred to a PDVF membrane for Western blotting using standard Western blotting protocols. Membranes were blocked with Licor TBS blocking buffer then probed with antibodies for BCL-XL, BCL-2, MCL1, BID, and GAPDH visualized using and Odyssey imager (FIGS. 23A and 23D).
In a similar experiment, TNBC breast cancer cell lines HCC70, MDAMB468, MDAMB453 and CAL-120 were grown as described above and treated with DMSO, 50 nM Compound 1 or 100 nM Compound 1 for 24 hours. Protein samples were prepared as described above for Western blotting using antibodies specific for the indicated proteins in FIG. 29A. […]

[3] = system: homologous recombination deficiency / carboplatin sensitivity genes in OvCar3 cells; assay: Nanostring PanCancer Pathways mRNA, OvCar3; type: cell-based; details: 50 nM, 16 hours
Method: as §1

CN(C)C/C=C/C(=O)Nc1ccc(C(=O)N[C@@]2(C)CCC[C@@H](Nc3ncc(Cl)c(-c4c[nH]c5ccccc45)n3)C2)nc1 [Compound 1, N-((1S,3R)-3-(5-chloro-4-(1H-indol-3-yl)pyrimidin-2-ylamino)-1-methylcyclohexyl)-5-((E)-4-(dimethylamino)but-2-enamido)picolinamide]
mRNA of genes related to homologous recombination deficiency and carboplatin sensitivity, all genes except Rad51 (BRCA1, BRCA2, ATM, ATR, MSH2, MSH6) [1]: downregulated
Tumor growth vs untreated historical samples (BR5023 xenografts): little inhibitory effect on tumor growth
MCL1 protein level (Western blot) [2]: downregulated
mRNA of genes related to homologous recombination deficiency and carboplatin sensitivity, all genes except Rad51 (BRCA1, BRCA2, ATM, ATR, MSH2, MSH6) [3]: downregulated
